The source of these data is PMC11133381, “Necroptosis induced by ruthenium (II) complexes as mitochondrial disruptors” (Cell Death Discovery, 2024).

Test [1] deals with HT29 cells. Description: Drug combination study (IC50, combination index, CompuSyn). The conditions noted are these: combinations at 1:1 ratio. The format is cell-based, human. Here is the method: In drug combination studies, cells were incubated with TRZ2 combined with 5-fluorouracil (5-FU), oxaliplatin (OXA), and irinotecan (IRI) chemotherapeutics (kindly provided by Hospital Santa Maria, Lisbon, Portugal) at a ratio of 1:1. The effect of combined treatments was evaluated using the CompuSyn software 1.0 (ComboSyn, Inc. and PD Science, LLC). Briefly, the combination index (CI) is a tool to analyze the interaction between drugs allowing to distinguish between synergistic, additive, and antagonistic effects. CI values are calculated considering the concentration of drugs in combination to produce a specific effect (Fraction affected—Fa) and the concentration of drugs to produce that same effect individually. The final CI value is calculated by the average of CI values at Fa 50, 75, 90, and 95%. CI value < 1 indicates synergism while a CI value > 1 indicates antagonism. Fa-CI plot between the levels of different fractions affected against the CI values was also created using CompuSyn software to interpret the type of interactions between TRZ2 and chemotherapeutic drugs. The data points below the additivity line (CI = 1) indicate synergism.

For test [2], the system named is HT29 cells. Description: TSZ (TNF-α + Z-VAD + BV6)-induced necroptosis, AK release. The conditions noted are these: Nec-1 30 μM, GSK872 10 μM, 24 h. It is filed as cell-based, human. The method, then: As positive control for necroptosis induction, HT29 cells were treated with 20 ng/mL recombinant human TNF-α (#300-01A, PeproTech EC Ltd., London, UK), 10 μM Z-Val-Ala-Asp-fluoromethylketon (Z-VAD-FMK or Z-VAD) pan-caspase inhibitor (#ALX-260-020, Enzo Life Sciences, Farmingdale, NY, USA), and 250 nM BV6 Smac mimetic (#B4653, ApexBio, Houston, USA), L929 cells were treated with 10 ng/mL recombinant murine TNF-α (#315-01 A, PeproTech), and HepG2 cells were treated with 10 μM doxorubicin (DOXO) (#D1515, Sigma-Aldrich). […]
(§1) For evaluation of cell death and viability, cells were plated in 96-well plates at 5 × 10^3 cells/well for next-day treatments. MTS metabolism was evaluated as an indicator of cell viability using CellTiter 96® AQueous non-radioactive cell proliferation assay (Promega, Madison, WI, USA), according to the manufacturer’s instructions. Changes in absorbance were measured at 490 nm using a GloMax®-MultiDetection System (Promega). General cell death was evaluated using the ToxiLight^TM BioAssay Kit (Lonza Walkersville Inc., Walkersville, MD, USA), by determining the quantities of adenylate kinase (AK) released from cells with permeabilized plasma membranes and present in the extracellular medium. The bioluminescent signals were recorded using also the GloMax®-MultiDetection System.

A further test concerns HCT116 cells. The experiment in a line: Antiproliferative MTS assay, HCT116 cells, 72 h. The conditions noted are these: 72 h compound incubation. It is filed as cell-based, human. The method, then: as §1
(§2) The primary drug screen was performed using the HCT116 and HT29 cell lines. Cells were seeded in 96-well plates at 5 × 10^3 cells/well and 24 h after, exposed to Ru-TRZ compounds and derivatives at a range of concentrations from 0.012 to 243 μM. Cell proliferation was assessed 72 h later using the MTS assay. As a secondary screen, selected hits were tested using HT29, HepG2, and AML12 wild-type cells seeded in 96-well plates at 5 × 10^3 cells/well. In the following day, cells were exposed to selected compounds at the same range of concentrations for additional 24 h. Cell death was evaluated by the ToxiLight assay. All measurements were performed in duplicate. The half-maximal effective concentration (EC50) and half-maximal inhibitory concentration (IC50) were calculated using the GraphPad Prism Software version 8.0.2 (GraphPad Software, Inc., San Diego, CA, USA) with the log (inhibitor) versus response (variable slope) function.

Test [3] relates to HT29 cells. The experiment in a line: Antiproliferative MTS assay, HT29 cells, 72 h. The format is cell-based, human. The note with it: 72 h compound incubation. Here is the method:
as §1, §2
In general terms: Formazan colour is commonly taken as a measure of viable cells.

For test [4], the system named is HT29 cells. The experiment in a line: Cytotoxicity by AK release (ToxiLight), HT29 cells, 24 h. It is filed as cell-based, human. Here is the method:
as §1
(§3) The primary drug screen was performed using the HCT116 and HT29 cell lines. […] Cell proliferation was assessed 72 h later using the MTS assay. […] Cell death was evaluated by the ToxiLight assay. […] The half-maximal effective concentration (EC50) and half-maximal inhibitory concentration (IC50) were calculated using the GraphPad Prism Software version 8.0.2 (GraphPad Software, Inc., San Diego, CA, USA) with the log (inhibitor) versus response (variable slope) function.

Test [5] has as its system HT29 cells. The experiment in a line: Mitochondrial ROS production (MitoSOX Red). The format is cell-based, human. The note with it: 10 µM, 15 min. The method, then:
Mitochondrial superoxide abundance was quantified by fluorometric quantification. Briefly, HT29 or AML12 cells were plated on a 96-well plate at 5 ×10^3 cells/well and on the next day treated with 10 µM Ru-TRZ, or vehicle control, for additional 15 min. MitoSOX™ Red (Invitrogen, Thermo Fisher Scientific) diluted 1:1000 in HBSS was added (100 μL per well) and incubated at 37 °C in a CO2 incubator for 10 min. Cells were then washed with PBS to remove the excess of dye and fluorescence intensity was measured using a Varioskan™ LUX multimode microplate reader (Thermo Scientific) with excitation and emission wavelengths of 510 and 580 nm, respectively. Fluorescence values were normalized by the cell mass content.

The test system of a further test is HepG2 cells. Description: Cytotoxicity by AK release (ToxiLight), HepG2 cells, 24 h. The note with it: 24 h compound incubation. It is filed as cell-based, human. The method, then:
as §1, §3

Another test relates to AML12 cells. The experiment in a line: Cytotoxicity by AK release (ToxiLight), AML12 hepatocytes, 24 h. The conditions noted are these: 24 h compound incubation. The format is cell-based, mouse. The method, then:
as §1, §3

The subject of test [6] is HT29 cells. Description: Mitochondrial transmembrane potential (JC-1). The format is cell-based, human. The conditions noted are these: 2 h. Here is the method:
JC-1 (Sigma-Aldrich) is a cationic dye that represents a reliable fluorescent probe for the assessment of mitochondrial transmembrane potential (ΔΨm). […] HT29 or AML12 cells were plated on a 96-well plate at 5 × 10^3 cells/well and on the next day treated with Ru-TRZ compounds (1 and 5 µM) for 2 h. Carbonyl cyanide m-chlorophenyl hydrazone (CCCP), a mitochondrial depolarizing agent, was used as positive control (200 µM; 4 h). Emitted fluorescence was measured at 530 nm and 590 nm using the GloMax®-MultiDetection System (Promega) and the ratio 590/530 emission intensity was calculated.

The test system of test [7] is caspase-3/7 activity in HT29 cells. Description: Caspase-Glo 3/7 assay. The note with it: 10 µM, 24 h, p < 0.001. It is filed as cell-based, human. Here is the method:
To determine caspase-3/7 activity, HT29 cells were seeded in 96-well plates at 5 ×10^3 cells/well. Twenty-four hours later, cells were incubated with 10 µM Ru-TRZ, or vehicle control, for additional 24 h. Caspase-3 and -7 activation status was measured using the Caspase-Glo® 3/7 Assay (Promega), according to the manufacturer’s instructions. The luminescent signal was recorded using the GloMax®-MultiDetection System (Promega).

[8] abbreviates: Homo sapiens, HT-29, 24 h incubation.

With `O=c1[nH]cc(F)c(=O)[nH]1` [5-FU, 5-fluorouracil], the 50% inhibitory concentration (IC50) in the test with HT29 cells [1] (setting [8]) turned out to be 30000 nM.
Turning to `CC(C)S(=O)(=O)c1ccc2nccc(Nc3ccc4scnc4c3)c2c1` [GSK872], the “Effect on TSZ-induced cell damage (AK release)” value in the test on HT29 cells [2] is on record as “significantly decreased TSZ-induced AK release”.
In the case of `CCc1c2c(nc3ccc(OC(=O)N4CCC(N5CCCCC5)CC4)cc13)-c1cc3c(c(=O)n1C2)COC(=O)[C@]3(O)CC` [IRI, irinotecan], the IC50 in the test with HT29 cells [1] (setting [8]) turned out to be 44000 nM.
Turning to `CN1C(=O)C(Cc2c[nH]c3ccccc23)NC1=S` (centres unmarked) [Nec-1, Necrostatin-1], in the test on HT29 cells [2], the “Effect on TSZ-induced cell damage (AK release)” value was “rescued”.
As for `O=C1[O][Pt]2([NH][C@@H]3CCCC[C@H]3[NH]2)[O]C1=O` [OX, oxaliplatin], the IC50 in the test with HT29 cells [1] (24 h incubation) came out at 10800 nM.
Regarding `CN(N=Nc1ccc(C#N)cc1)C(=O)c1ccccc1.O=S(=O)([O-])C(F)(F)F.[Ru+2].c1cc[cH-]c1.c1ccc(P(CCP(c2ccccc2)c2ccccc2)c2ccccc2)cc1` [TRZ4], the results for the IC50 in the test with HCT116 cells and with HT29 cells [3] were 0.55 µM and 0.23 µM, respectively.
On the same counts, the results for `CN(C)N=Nc1ccc(C#N)cc1.O=S(=O)([O-])C(F)(F)F.c1cc[cH-]c1.c1ccc([P]2(c3ccccc3)CC[P](c3ccccc3)(c3ccccc3)[Ru+2]2)cc1` [TRZ5] are 0.22 µM and 0.31 µM.
On the same counts, the results for `N#Cc1ccc(NC(=O)CCOCCOCCOCCN)cc1.O=S(=O)([O-])C(F)(F)F.[Ru+2].c1cc[cH-]c1.c1ccc(P(CCP(c2ccccc2)c2ccccc2)c2ccccc2)cc1` [TRZ6] are 2.42 µM and 3.54 µM.
For the compound `CCCC(=O)Nc1ccc(C#N)cc1.O=S(=O)([O-])C(F)(F)F.c1cc[cH-]c1.c1ccc([P]2(c3ccccc3)CC[P](c3ccccc3)(c3ccccc3)[Ru+2]2)cc1` [TRZ7], the “Cell death (AK release)” value in the test on HT29 cells [4] (10 µM, 24 h, partially reverted by Z-VAD, Nec-1 and GSK872) is “high levels of cell death”. Moreover, the EC50 in the test on HT29 cells [4] (AK release, 24 h compound incubation) was 15200 nM; in the test with HepG2 cells, 16800 nM; in the test with AML12 cells, 40200 nM. For the same compound, in the test on HT29 cells [5], the “Increase of mitochondrial ROS” value is listed as around 3 fold. The IC50 with HCT116 cells was found to be 0.55 µM; in the test with HT29 cells [3] it was 0.36 µM. The “Loss of ΔΨm” value in the test with HT29 cells [6] (1 µM, JC-1, p < 0.05) was “significant loss of ΔΨm”; in the test on HT29 cells [6] (5 µM, JC-1, CCCP 200 µM 4 h as positive control) it was “loss of ΔΨm similar to the one induced by CCCP”. In [7], the “Increase in caspase-3/7 activity” value is “up to 4 fold”.
In the case of `N#Cc1ccc(NC(=O)COCCOCCOCCN=[N+]=[N-])cc1.O=S(=O)([O-])C(F)(F)F.[Ru+2].c1cc[cH-]c1.c1ccc(P(CCP(c2ccccc2)c2ccccc2)c2ccccc2)cc1` [TRZ8], the IC50 stood at 0.46 µM in the test on HCT116 cells and 0.27 µM in the test on HT29 cells [3].

The IC50 is the concentration needed to halve the response being measured. The EC50 is the concentration that produces a half-maximal response. The low end stands for greater potency, the high end for weaker potency.
